Assay results published in US12678446B2 (PFIZER INC., priority 2020, dated 2026).
pEC50: −log10 of the molar value. Like-named read-outs stand apart in the source and are kept apart here.

Columns and labels:
[1] = Hepatocyte stability, human; assay type: in vitro ADME; details: human hepatocytes 0.5×10^6 viable cells/mL, 3 μM compound, up to 60 min; for half-life at 3 μM: cryopreserved pooled hepatocytes, read-out: Liver Hepatocyte Stability t½
Method: (§1) Compounds were subjected to the following assays to investigate liver microsomal stability and hepatocyte stability.
(§2) Hepatocyte Incubation: Experimental Procedure
(§3) Cryopreserved pooled hepatocytes were purchased from a reputable commercial supplier and stored in liquid nitrogen prior to use. Williams E media supplemented with 2 mM L-glutamine and 25 mM HEPES and test compound (final substrate concentration 3 μM; final DMSO concentration 0.25%) are pre-incubated at 37° C. prior to the addition of a suspension of cryopreserved hepatocytes (final cell density 0.5×10^6 viable cells/mL in Williams E media supplemented with 2 mM L-glutamine and 25 mM HEPES) to initiate the reaction. The final incubation volume is 500 μL. Two control compounds were included with each species, alongside appropriate vehicle control. The reactions are stopped by transferring 50 μL of incubate to 100 μL acetonitrile containing internal standard at the appropriate time points. Samples were removed at 6 time points (0, 5, 15, 30, 45 and 60 min) over the course of a 60 min experiment. The termination plates are centrifuged at 2500 rpm at 4° C. for 30 min to precipitate the protein. Following protein precipitation, the sample supernatants were combined in cassettes of up to 4 compounds and analysed using generic LC-MS/MS conditions. From a plot of ln peak area ratio (compound peak area/internal standard peak area) against time, the gradient of the line is determined. Subsequently, half-life (t½) and intrinsic clearance (CLint) were calculated.

[2] = Hepatocyte stability, dog; assay type: in vitro ADME; details: dog hepatocytes 0.5×10^6 viable cells/mL, 3 μM compound, up to 60 min; for half-life at 3 μM: cryopreserved pooled hepatocytes, read-out: Liver Hepatocyte Stability t½
Method: as §1, §2, §3

[3] = cell toxicity CC50; assay type: cell-based; details: human; Hep-G2 cells; mean of at least two experiments; read-out: Cell Cytotoxicity CC50
[4] = Liver microsomal stability, dog; assay type: in vitro ADME; details: dog liver microsomes 0.5 mg/mL, 1 μM compound, NADPH, up to 45 min; for half-life at 1 μM: pooled liver microsomes, pH 7.4, read-out: Liver Microsomal Stability t½
Method: as §1
(§4) Pooled liver microsomes were purchased from a reputable commercial supplier and stored at −80° C. prior to use. Microsomes (final protein concentration 0.5 mg/mL), 0.1 M phosphate buffer pH 7.4 and test compound (final substrate concentration 1 μM; final DMSO concentration 0.25%) were pre-incubated at 37° C. prior to the addition of NADPH (final concentration 1 mM) to initiate the reaction. The final incubation volume was 50 μL. A control incubation was included for each compound tested where 0.1 M phosphate buffer pH 7.4 was added instead of NADPH (minus NADPH). Two control compounds were included with each species. All incubations were performed singularly for each test compound. Each compound was incubated for 0, 5, 15, 30 and 45 min. The control (minus NADPH) was incubated for 45 min only. The reactions were stopped by transferring incubate into acetonitrile at the appropriate time points, in a 1:3 ratio. The termination plates are centrifuged at 3,000 rpm for 20 min at 4° C. to precipitate the protein. Following protein precipitation, the sample supernatants were combined in cassettes of up to 4 compounds, internal standard added, and samples analysed by LC-MS/MS. From a plot of ln peak area ratio (compound peak area/internal standard peak area) against time, the gradient of the line was determined. Subsequently, half-life (t1/2) and intrinsic clearance (CLint) were calculated.

[5] = tested on: RSV (RSV A2 ECACC, 0709161v); assay: RSV plaque reduction assay; assay type: cell-based, respiratory syncytial virus; details: mean of at least two experiments unless noted (n = 1)
Summary of the method: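 Eight-point compound dilutions were premixed with RSV A2 (100 PFU/well) and applied to confluent Hep-G2 cells for 2 h, followed by a 2-day incubation at 37° C. under compound-containing 0.8% CMC overlay. EC50 comes from immunostained plaque counts relative to untreated virus wells, averaged over ≥2 runs.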

[6] = Liver microsomal stability, human; assay type: in vitro ADME; details: human liver microsomes 0.5 mg/mL, 1 μM compound, NADPH, up to 45 min; for half-life at 1 μM: pooled liver microsomes, pH 7.4, read-out: Liver Microsomal Stability t½
Method: as §1, §4

[7] = Hepatocyte stability, rat; assay type: in vitro ADME; details: rat hepatocytes 0.5×10^6 viable cells/mL, 3 μM compound, up to 60 min; for half-life at 3 μM: cryopreserved pooled hepatocytes, read-out: Liver Hepatocyte Stability t½
Method: as §1, §2, §3

[8] = Rat pharmacokinetics in vivo (IV 1 mg/kg, PO 10 mg/kg); set-up: species or system Male rats [Sprague Dawley (SD)]; details: male SD rat; for AUC(0-t): read-out: PO AUClast; for Cmax: PO 10 mg/kg study; for concentration at 8 h: read-out: C 8 h; for F: PO 10 mg/kg vs IV 1 mg/kg
Method: The pharmacokinetics of compounds were studied in vivo in rats at doses of 1 mg/kg (IV) and 10 mg/kg (PO).
Male rats [Sprague Dawley (SD)] surgically prepared with a jugular vein cannula were treated with experimental compounds via intravenous administration (IV; n=3; 1 mg/kg) or oral administration (PO; n=3; 10 mg/kg). Compounds were formulated as a solution in 40:60 dimethylacetamide:saline (IV administration) and a solution of 10% DMSO, 10% cremaphor in water (80%) (PO administration). […] Serial blood samples were collected via the cannula at 0.02, 0.08, 0.25, 0.5, 1, 2, 4, 6, 8 and 24 h post IV dosing of compound, and at 0.08, 0.25, 0.5, 1, 2, 4, 6, 8 and 24 h post oral dosing of compound, and plasma was prepared by centrifugation and stored immediately at −80° C. Samples were subsequently thawed, prepared for analysis by protein precipitation with acetonitrile, and analysed by tandem LCMS using electrospray ionisation using a matrix-matched calibration curve. PK parameters were calculated from the resulting data.

[9] = Liver microsomal stability, rat; assay type: in vitro ADME; details: rat liver microsomes 0.5 mg/mL, 1 μM compound, NADPH, up to 45 min; for half-life at 1 μM: pooled liver microsomes, pH 7.4, read-out: Liver Microsomal Stability t½
Method: as §1, §4

[10] = tested on: RSV; details: Antimicrobial Agents and Chemotherapy, September 2007, 3346-3353; cited from earlier work
[11] = tested on: Hep-G2 cells; assay: cell toxicity CC50; assay type: cell-based; details: mean of at least two experiments, read-out: Cell Cytotoxicity CC50
[12] = human respiratory syncytial virus, HepG2, read-out: RSV A2 Plaque EC50, RSV A2 in Hep-G2 cells
[13] = Sprague Dawley, plasma, IV 1 mg/kg
[14] = Sprague Dawley, plasma, IV 1 mg/kg, read-out: IV t½ (converted)
[15] = Sprague Dawley, plasma, IV 1 mg/kg, read-out: Vd
[16] = Sprague Dawley, plasma, PO 10 mg/kg
[17] = Sprague Dawley, plasma, PO 10 mg/kg, read-out: PO t½ (converted)
[18] = Sprague Dawley, plasma, IV 1 mg/kg, read-out: Cmax

Row | Compound | half-life at 3 μM [1] [h] | half-life at 3 μM [2] [h] | CC50 [3] [nM] | half-life at 1 μM [4] [h] | pEC50 [5, 12] | half-life at 1 μM [6] [h] | half-life at 3 μM [7] [h] | clearance [8, 13] [mL/min/kg] | half-life [8, 14] [h] | Vd [8, 15] [L/kg] | AUC(0-t) [8, 16] [ng·h/mL] | half-life [8, 17] [h] | Cmax [8, 18] [ng/mL] | concentration at 8 h ([8]; Sprague Dawley, plasma at 8 h) [ng/mL] | F [8] [%] | half-life at 1 μM [9] [h] | other results
1 | C[C@H]1CCn2nc(-c3ccccc3F)c(C(=O)N[C@H]3N=C(c4ccccc4)c4cccc(F)c4NC3=O)c2O1 [Example 27, (5S)-N-[(3S)-9-fluoro-2-oxo-5-phenyl-1,3-dihydro-1,4-benzodiazepin-3-yl]-2-(2-fluorophenyl)-5-methyl-6,7-dihydro-5H-pyrazolo[5,1-b][1,3]oxazine-3-carboxamide] | > 3.1 | > 3.1 | > 25000 | 7.72 | 7.70 | 2.25 | 8.08 | 24.9 | 0.72 | 0.9 | 3140 | 2.8 | 960 | 75.9 | 49.6 | 1.4 | 
2 | CCc1ccc(-c2nn3c(c2C(=O)N[C@H]2N=C(c4ccccc4)c4cccc(F)c4NC2=O)OCCC3)cn1 [Example 106, 2-(6-Ethylpyridin-3-yl)-N-[(3S)-9-fluoro-2-oxo-5-phenyl-1,3-dihydro-1,4-benzodiazepin-3-yl]-6,7-dihydro-5H-pyrazolo[5,1-b][1,3]oxazine-3-carboxamide] | > 3.1 | 2 | > 25000 | 1.82 | 7.32 | 3.1 | 1.59 | 14.6 | 1.2 | 0.7 | 5690 | 3.6 | 1030 | 271 | 59.4 | 0.815 | 
3 | O=C(Nc1ccccc1F)N[C@H]1N=C(c2ccccc2)c2ccccc2NC1=O [RSV604] |  |  |  |  |  |  |  |  |  |  |  |  |  |  |  |  | anti-RSV activity [10]: sub-micromolar anti-RSV activity
4 | (5R)-2-(3-Fluoropyridin-4-yl)-5-methyl-N-[(3S)-9-fluoro-2-oxo-5-phenyl-1,3-dihydro-1,4-benzodiazepin-3-yl]-6,7-dihydro-5H-pyrazolo[5,1-b][1,3]oxazine-3-carboxamide [Example 51] |  |  |  |  |  |  |  |  |  |  |  |  |  |  | 44.3 |  | Liver Hepatocyte Stability t½ [1]: 1.47 h; Liver Hepatocyte Stability t½ [2]: 16.4 h; CC50 [11]: > 25000 nM; Liver Microsomal Stability t½ [4]: > 2.33 h; pEC50 ([5]; RSV A2 in Hep-G2 cells, read-out: RSV A2 Plaque EC50): 7.10; Liver Microsomal Stability t½ [6]: 1.04 h; Liver Hepatocyte Stability t½ [7]: 1.88 h; Cl ([8]; IV 1 mg/kg): 46.4 mL/min/kg; IV t½ ([8]; IV 1 mg/kg): 0.48 h; Vd ([8]; IV 1 mg/kg): 1.0 L/kg; PO AUClast ([8]; PO 10 mg/kg): 1582 ng·h/mL; PO t½ ([8]; PO 10 mg/kg): 1.1 h; Cmax ([8]; IV 1 mg/kg): 730 ng/mL; C 8 h ([8]; plasma at 8 h): 7.6 ng/mL; Liver Microsomal Stability t½ [9]: 1.1 h
